Source: ChEMBL document CHEMBL5518224, “Rational Design of PARP1/c-Met Dual Inhibitors for Overcoming PARP1 Inhibitor Resistance Induced by c-Met Overexpression” (J Med Chem, 2024)

Legend:
[1] = biological target: Poly [ADP-ribose] polymerase 1 (Homo sapiens, UniProt P09874); assay: Inhibition of PARP1 (unknown origin) using histone as substrate incubated for 45 mins by absorbance based analysis
[2] = biological target: T1, Hepatocyte growth factor receptor (Homo sapiens, UniProt P08581); assay: Inhibition of c-Met (unknown origin) by HTRF method
[3] = biological target: T1, Hepatocyte growth factor receptor; assay: Inhibition of c-Met (unknown origin) at 100 nM by HTRF method relative to control
MDA-MB-231 = assay: Antiproliferative activity against human MDA-MB-231 cells harboring wild type BRCA and c-Met amplification assessed as inhibition of cell growth incubated for 7 days by MTT assay; assay type: functional, cell-based; conditions: MDA-MB-231, 168 h

Sequence of Poly [ADP-ribose] polymerase 1 (P09874 whole entry): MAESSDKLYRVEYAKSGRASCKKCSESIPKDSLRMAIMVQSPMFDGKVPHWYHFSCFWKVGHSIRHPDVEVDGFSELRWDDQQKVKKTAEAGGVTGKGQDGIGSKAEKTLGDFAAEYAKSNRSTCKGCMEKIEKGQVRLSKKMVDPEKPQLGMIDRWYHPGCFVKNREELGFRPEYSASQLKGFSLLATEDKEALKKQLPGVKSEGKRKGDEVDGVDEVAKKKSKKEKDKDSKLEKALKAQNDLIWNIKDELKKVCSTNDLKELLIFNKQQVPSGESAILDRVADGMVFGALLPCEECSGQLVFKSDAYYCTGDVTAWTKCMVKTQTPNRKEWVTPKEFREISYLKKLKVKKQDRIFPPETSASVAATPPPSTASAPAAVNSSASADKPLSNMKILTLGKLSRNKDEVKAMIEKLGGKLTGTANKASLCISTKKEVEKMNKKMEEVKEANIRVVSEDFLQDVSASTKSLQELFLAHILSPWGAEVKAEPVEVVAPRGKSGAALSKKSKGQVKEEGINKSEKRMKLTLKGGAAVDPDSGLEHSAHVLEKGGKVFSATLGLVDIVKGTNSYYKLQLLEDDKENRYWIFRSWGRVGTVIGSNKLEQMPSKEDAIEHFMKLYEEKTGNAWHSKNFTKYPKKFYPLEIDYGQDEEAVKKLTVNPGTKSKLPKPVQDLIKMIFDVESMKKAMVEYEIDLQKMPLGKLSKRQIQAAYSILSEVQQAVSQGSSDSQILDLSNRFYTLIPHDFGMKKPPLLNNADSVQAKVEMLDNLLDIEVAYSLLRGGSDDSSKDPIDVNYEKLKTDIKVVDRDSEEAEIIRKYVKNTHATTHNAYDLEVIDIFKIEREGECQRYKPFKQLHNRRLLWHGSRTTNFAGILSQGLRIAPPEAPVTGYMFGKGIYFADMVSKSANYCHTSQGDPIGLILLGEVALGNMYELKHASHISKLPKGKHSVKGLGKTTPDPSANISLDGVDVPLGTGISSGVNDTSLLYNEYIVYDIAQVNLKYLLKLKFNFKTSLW
T1 sequence (P08581 whole entry): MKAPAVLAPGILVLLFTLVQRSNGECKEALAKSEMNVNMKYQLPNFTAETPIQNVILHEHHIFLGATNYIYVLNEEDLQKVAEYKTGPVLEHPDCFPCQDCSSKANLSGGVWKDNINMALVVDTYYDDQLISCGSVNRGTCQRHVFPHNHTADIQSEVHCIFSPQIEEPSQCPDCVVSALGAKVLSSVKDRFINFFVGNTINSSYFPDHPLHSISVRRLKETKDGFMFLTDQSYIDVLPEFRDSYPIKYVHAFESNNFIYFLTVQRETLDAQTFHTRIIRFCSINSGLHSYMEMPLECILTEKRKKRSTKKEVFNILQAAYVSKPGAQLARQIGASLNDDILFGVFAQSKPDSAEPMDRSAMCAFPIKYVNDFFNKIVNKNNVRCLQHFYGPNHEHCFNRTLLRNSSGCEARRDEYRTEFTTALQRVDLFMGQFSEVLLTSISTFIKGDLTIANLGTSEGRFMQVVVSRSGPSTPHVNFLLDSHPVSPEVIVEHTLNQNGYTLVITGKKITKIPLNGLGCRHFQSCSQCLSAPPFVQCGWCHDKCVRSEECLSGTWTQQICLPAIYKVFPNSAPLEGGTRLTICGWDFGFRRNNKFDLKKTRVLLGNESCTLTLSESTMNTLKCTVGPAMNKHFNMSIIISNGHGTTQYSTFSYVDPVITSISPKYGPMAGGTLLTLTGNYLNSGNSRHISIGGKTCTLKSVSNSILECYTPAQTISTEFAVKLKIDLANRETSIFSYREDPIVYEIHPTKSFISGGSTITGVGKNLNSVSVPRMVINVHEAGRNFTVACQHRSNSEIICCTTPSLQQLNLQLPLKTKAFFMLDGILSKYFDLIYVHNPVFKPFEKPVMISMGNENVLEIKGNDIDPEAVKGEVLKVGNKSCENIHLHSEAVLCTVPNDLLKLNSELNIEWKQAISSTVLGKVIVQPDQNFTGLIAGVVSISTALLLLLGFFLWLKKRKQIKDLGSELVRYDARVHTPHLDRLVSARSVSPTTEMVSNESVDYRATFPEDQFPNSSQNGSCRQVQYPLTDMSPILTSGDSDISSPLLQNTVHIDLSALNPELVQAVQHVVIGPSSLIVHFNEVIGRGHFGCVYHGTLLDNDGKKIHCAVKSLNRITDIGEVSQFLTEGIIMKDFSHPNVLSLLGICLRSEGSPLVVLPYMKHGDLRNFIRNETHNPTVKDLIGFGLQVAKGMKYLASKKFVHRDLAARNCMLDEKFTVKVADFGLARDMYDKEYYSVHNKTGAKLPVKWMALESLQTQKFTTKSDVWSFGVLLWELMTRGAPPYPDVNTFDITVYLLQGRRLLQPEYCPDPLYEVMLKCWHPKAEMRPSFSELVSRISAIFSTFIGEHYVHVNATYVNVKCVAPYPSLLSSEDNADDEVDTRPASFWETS

Compound | IC50 [1] | IC50 [2] | inhibition [3] | IC50 (MDA-MB-231)
Cn1cc(-c2ccc(=O)n(CCOc3ccnc4cc(NC5CCN(C(=O)c6cc(Cc7n[nH]c(=O)c8ccccc78)ccc6F)CC5)ccc34)n2)cn1 | 4.7 nM | 126 nM | – | –
Cn1cc(-c2ccc(=O)n(CCOc3ccnc4cc(NCCN5CCN(C(=O)c6cc(Cc7n[nH]c(=O)c8ccccc78)ccc6F)CC5)ccc34)n2)cn1 | 32.2 nM | – | < 50% | –
O=C(c1cc(Cc2n[nH]c(=O)c3ccccc23)ccc1F)N1CCN(c2ccc3c(OCCn4ncccc4=O)ccnc3c2)CC1 | 0.9 nM | – | < 50% | –
Cn1cc(-c2ccc(=O)n(CCOc3ccnc4cc(N5CCC(NC(=O)c6cc(Cc7n[nH]c(=O)c8ccccc78)ccc6F)CC5)ccc34)n2)cn1 | 42 nM | 64.2 nM | – | –
Cn1cc(-c2ccc(=O)n(CCOc3ccnc4cc(N5CCC(NC(=O)c6cc(Cc7n[nH]c(=O)c8ccccc78)ccc6F)C5)ccc34)n2)cn1 (stereo not given) | 91.7 nM | 33.1 nM | – | –
Cn1cc(-c2ccc(=O)n(CCOc3ccnc4cc(N5CCN(C(=O)c6cc(Cc7n[nH]c(=O)c8ccccc78)ccc6F)CC5)ccc34)n2)cn1 | 0.12 nM | 30 nM | – | 230 nM
Cn1cc(-c2ccc(=O)n(CCOc3ccnc4cc(OC5CCN(C(=O)c6cc(Cc7n[nH]c(=O)c8ccccc78)ccc6F)CC5)ccc34)n2)cn1 | 2.1 nM | – | < 50% | –
